Test results from PubChem BioAssay (NCI).
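Cells were grown in 96-well plates and exposed to each compound for 48 hours at five concentrations; endpoints were interpolated linearly between bracketing concentrations, or set to the highest concentration if not reached. TGI marks complete inhibition of growth.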

Key:
Assay in all cases: NCI tumour cell line growth inhibition, 48 h
SR leukemia = test system: SR leukemia
SNB-19 CNS = test system: SNB-19 CNS
HL-60(TB) leukemia = test system: HL-60(TB) leukemia
HOP-62 NSCLC = test system: HOP-62 NSCLC
NCI-H23 lung = test system: NCI-H23 lung
MDA-MB-231 breast = test system: MDA-MB-231 breast
SK-MEL-28 melanoma = test system: SK-MEL-28 melanoma
CAKI-1 renal = test system: CAKI-1 renal
SK-MEL-5 melanoma = test system: SK-MEL-5 melanoma
PC-3 prostate = test system: PC-3 prostate
OVCAR-4 ovarian = test system: OVCAR-4 ovarian

SMILES	TGI (SR leukemia) [µM]	TGI (SNB-19 CNS) [µM]	TGI (HL-60(TB) leukemia) [µM]	TGI (HOP-62 NSCLC) [µM]	TGI (NCI-H23 lung) [µM]	TGI (MDA-MB-231 breast) [µM]	TGI (SK-MEL-28 melanoma) [µM]	TGI (CAKI-1 renal) [µM]	TGI (SK-MEL-5 melanoma) [µM]	TGI (PC-3 prostate) [µM]	TGI (OVCAR-4 ovarian) [µM]
CCCCOCCOCCOC1=CC(=O)c2c(O)ccc(O)c2C1=O	> 10	3.19	6	3.22	3.32	3.86	2.95	3.76	2.25	7.53	3.4
CC1(C)C2CCC3CC(CCC#N)CCC3C21C#N (stereo not given)	> 100	> 100	> 100	> 100	> 100	> 100	> 100	> 100	> 100	> 100	> 100
CC(C)OC(=O)c1ccc(NCc2cc(O)ccc2O)cc1	10.2	> 68.7	1.62	31.9	18	9.59	29.3	2.81	10.8	3.99	18.7
CSc1ncnc2c1cnn2Cc1cnnn1COCC(O)CO (stereo not given)	> 100	> 100	> 100	> 100	> 100	> 100	> 100	> 100	> 100	> 100	> 100
Cc1ccc(/C=C2\Sc3scc(-c4ccccc4)[n+]3C2=O)cc1	26.4	> 72	5.31	> 100	46.4	65	> 100	33.4	> 58.2	> 100	> 81.1
Cc1cccc(C2ON=C(c3ccccc3)N2C23CC4CC(CC(C4)C2)C3)c1 (stereo not given)	> 10	> 10	> 10	> 10	> 10	> 10	> 10	> 10	> 10	> 10	> 10
CC(C)[C@@H]1CC[C@@H](C)C[C@H]1OC(=O)c1c2n(c3ccccc13)C[C@H]1OC(C)(C)O[C@@H]21	24.1	–	> 100	> 100	48.9	> 100	> 100	87.3	> 100	> 100	> 100
CC(C)=CCCC(C)(OC1OC(CO)C(O)C(O)C1O)C1CCC2(C)C1C(O)CC1C3(C)CCC(O)C(C)(C)C3C(OC3OC(CO)C(O)C(O)C3OC3OC(C)C(O)C(O)C3O)CC12C (stereo not given) (tested in a mixture with another compound)	> 75	> 75	> 75	> 75	> 75	> 75	> 75	> 75	> 75	> 75	> 75
CC1=NN=C(C)C1N=Nc1ccc2nc(C)[nH]c2c1	48.3	> 100	> 100	> 100	> 100	> 88.2	> 100	> 44.7	> 63.8	> 100	> 100
CCC(NC(C)c1ccccc1)C(=O)c1ccc(OCc2ccccc2)c(OCc2ccccc2)c1 (stereo not given)	> 100	> 100	> 100	> 100	> 100	> 100	> 100	> 100	> 100	> 100	> 100
CC1(C)CCN2C(=O)C34CCCC3CC21S4 (stereo not given)	> 100	> 100	> 100	> 100	> 100	> 100	> 100	> 100	> 100	> 100	> 100
FC(F)(F)c1ccccc1C1SCC2=Nc3ccccc3CN21 (stereo not given)	> 100	26.3	66.2	23.1	26.6	> 100	58.2	> 100	27.9	27.9	30.1
CNC(=O)c1n[nH]n(C2CCCCC2)c1=S	> 100	> 100	> 100	> 100	> 100	> 100	> 100	> 100	> 100	> 100	> 100
CC(C)C1CNC(=O)C2(C=NC(C(C)C)CNC(=O)C3(C=N1)CCCO3)CCCO2 (stereo not given)	> 10	> 10	> 10	> 10	> 10	> 10	> 10	> 10	> 10	> 10	> 10
COc1ccc(-n2c(CCC(=O)O)nc3c2C(=O)c2ccccc2C3=O)cc1	> 100	> 100	> 100	> 100	> 100	> 100	> 100	> 100	> 100	> 100	> 100
CCOC(=O)C(NC(=O)OCc1ccccc1)C(=O)O (stereo not given)	> 100	> 100	> 100	> 100	> 100	> 100	> 100	> 100	> 100	> 100	> 100
